{"source": "PubChem BioAssay AID256", "about": "(DTP/NCI, 2004)", "test_system": "CD2F1 mice, L1210 leukemia ip, survival T/C", "assay": "NCI In Vivo Anticancer Drug Screen. Data for tumor model L1210 Leukemia (intraperitoneal) in CD2F1 (CDF1) mice", "settings": "higher = longer survival", "outline": "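Vehicle-treated tumor-bearing mice served as controls (C) for compound-treated mice (T). Reported figure is T divided by C.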", "key": {"[1]": {"settings": "endpoint: mean survival time, dose: 100.0 mg/kg/injection, schedule: Q01DX009 (ip), vehicle: saline with Tween-80"}, "[2]": {"settings": "endpoint: mean survival time, dose: 200.0 mg/kg/injection, schedule: Q01DX009 (ip), vehicle: saline with Tween-80"}}, "note": "“And” between values parts separate entries of the source, which are not always exact repeats. Identical values can stand only once. Toxic doses and inconclusive results are not listed."}
{"smiles": "O=[N+]([O-])c1cc(S(=O)(=O)c2ccc(/C=C/c3ccc4c(c3)OCO4)c([N+](=O)[O-])c2)ccc1/C=C/c1ccc2c(c1)OCO2", "values": [{"measurement": "T/C", "setting": "[1]", "result": "95 % of control"}, {"measurement": "T/C", "setting": "[2]", "result": "88 % of control"}, {"measurement": "T/C", "setting": "endpoint: mean survival time, dose: 400.0 mg/kg/injection, schedule: Q01DX009 (ip), vehicle: saline with Tween-80", "result": "93 % of control"}]}
{"smiles": "Cc1csc(NC(=O)c2ccc(C(=O)Nc3nc(C)cs3)cc2)n1", "values": [{"measurement": "T/C", "setting": "endpoint: mean survival time, dose: 100.0 mg/kg/injection, schedule: Q01DX001 (ip), vehicle: saline", "result": "95 % of control"}, {"measurement": "T/C", "setting": "endpoint: mean survival time, dose: 200.0 mg/kg/injection, schedule: Q01DX001 (ip), vehicle: saline", "result": "95 % of control"}, {"measurement": "T/C", "setting": "endpoint: mean survival time, dose: 400.0 mg/kg/injection, schedule: Q01DX001 (ip), vehicle: saline", "result": "92 % of control"}]}
{"smiles": "Cc1ccc(C(C)NC2=NCCO2)c(C)c1", "note": "(centres undefined)", "values": [{"measurement": "T/C", "setting": "endpoint: mean survival time, dose: 25.0 mg/kg/injection, schedule: Q04DX002 (ip), vehicle: saline with Tween-80", "result": "91 % of control"}, {"measurement": "T/C", "setting": "endpoint: mean survival time, dose: 50.0 mg/kg/injection, schedule: Q04DX002 (ip), vehicle: saline with Tween-80", "result": "95 % of control"}]}
{"smiles": "Cc1ccc(S(=O)(=O)N/N=C/c2ccc(Cl)s2)cc1", "values": [{"measurement": "T/C", "setting": "endpoint: mean survival time, dose: 100.0 mg/kg/injection, schedule: Q01DX001 (ip), vehicle: saline with Tween-80", "result": "94 % of control"}, {"measurement": "T/C", "setting": "endpoint: mean survival time, dose: 200.0 mg/kg/injection, schedule: Q01DX001 (ip), vehicle: saline with Tween-80", "result": "97 % of control"}, {"measurement": "T/C", "setting": "endpoint: mean survival time, dose: 400.0 mg/kg/injection, schedule: Q01DX001 (ip), vehicle: saline with Tween-80", "result": "97 % of control"}]}
{"smiles": "c1ccc2c(c1)CN(C1CCCCC1)CO2", "values": [{"measurement": "T/C", "setting": "endpoint: mean survival time, dose: 50.0 mg/kg/injection, schedule: Q01DX009 (ip), vehicle: saline with Tween-80", "result": "98 % of control"}, {"measurement": "T/C", "setting": "[1]", "result": "97 % of control"}, {"measurement": "T/C", "setting": "[2]", "result": "97 % of control"}]}
{"smiles": "O=NN(CCCCl)C(=O)Nc1ccccc1", "values": [{"measurement": "T/C", "setting": "endpoint: mean survival time, dose: 100.0 mg/kg/injection, schedule: Q01DX001 (ip), vehicle: carboxymethylcellulose (CMC)", "result": "96 % of control"}, {"measurement": "T/C", "setting": "endpoint: mean survival time, dose: 200.0 mg/kg/injection, schedule: Q01DX001 (ip), vehicle: carboxymethylcellulose (CMC)", "result": "119 % of control"}]}
{"smiles": "Cn1c(CC(O)c2nc3ccccc3n2C)nc2ccccc21", "note": "(centres undefined)", "values": [{"measurement": "T/C", "setting": "endpoint: mean survival time, dose: 50.0 mg/kg/injection, schedule: Q01DX009 (ip), vehicle: Klucel (hydroxypropylcellulose) (HPC)", "result": "97 % of control"}, {"measurement": "T/C", "setting": "endpoint: mean survival time, dose: 100.0 mg/kg/injection, schedule: Q01DX009 (ip), vehicle: Klucel (hydroxypropylcellulose) (HPC)", "result": "101 % of control"}, {"measurement": "T/C", "setting": "endpoint: mean survival time, dose: 200.0 mg/kg/injection, schedule: Q01DX009 (ip), vehicle: Klucel (hydroxypropylcellulose) (HPC)", "result": "120 % of control"}]}
{"smiles": "O=S1(=O)CS(=O)(=O)OCCO1", "values": [{"measurement": "T/C", "setting": "endpoint: median survival time, dose: 6.25 mg/kg/injection, schedule: Q01DX009 (oral), vehicle: Klucel (hydroxypropylcellulose) (HPC)", "result": "112 % of control"}, {"measurement": "T/C", "setting": "endpoint: median survival time, dose: 12.5 mg/kg/injection, schedule: Q01DX001 (oral), vehicle: Klucel (hydroxypropylcellulose) (HPC)", "result": "101 % of control"}, {"measurement": "T/C", "setting": "endpoint: median survival time, dose: 22.0 mg/kg/injection, schedule: Q06HX002 (oral), vehicle: Klucel (hydroxypropylcellulose) (HPC)", "result": "113 % of control"}, {"measurement": "T/C", "setting": "endpoint: median survival time, dose: 25.0 mg/kg/injection, schedule: Q01DX001 (oral), vehicle: Klucel (hydroxypropylcellulose) (HPC)", "result": "112 % of control"}, {"measurement": "T/C", "setting": "endpoint: median survival time, dose: 25.0 mg/kg/injection, schedule: Q01DX009 (oral), vehicle: Klucel (hydroxypropylcellulose) (HPC)", "result": "213 % of control"}, {"measurement": "T/C", "setting": "endpoint: median survival time, dose: 33.0 mg/kg/injection, schedule: Q01DX001 (oral), vehicle: Klucel (hydroxypropylcellulose) (HPC)", "result": "117 % of control"}, {"measurement": "T/C", "setting": "endpoint: median survival time, dose: 33.0 mg/kg/injection, schedule: Q01DX005 (oral), vehicle: Klucel (hydroxypropylcellulose) (HPC)", "result": "103 % of control"}, {"measurement": "T/C", "setting": "endpoint: median survival time, dose: 33.0 mg/kg/injection, schedule: Q06HX002 (oral), vehicle: Klucel (hydroxypropylcellulose) (HPC)", "result": "117 % of control"}, {"measurement": "T/C", "setting": "endpoint: median survival time, dose: 49.5 mg/kg/injection, schedule: Q01DX001 (oral), vehicle: Klucel (hydroxypropylcellulose) (HPC)", "result": "123 % of control"}, {"measurement": "T/C", "setting": "endpoint: median survival time, dose: 50.0 mg/kg/injection, schedule: Q01DX001 (oral), vehicle: Klucel (hydroxypropylcellulose) (HPC)", "result": "119 % of control"}, {"measurement": "T/C", "setting": "endpoint: median survival time, dose: 50.0 mg/kg/injection, schedule: Q01DX009 (oral), vehicle: Klucel (hydroxypropylcellulose) (HPC)", "result": "178 % of control and 337 % of control"}, {"measurement": "T/C", "setting": "endpoint: median survival time, dose: 74.2 mg/kg/injection, schedule: Q01DX005 (oral), vehicle: Klucel (hydroxypropylcellulose) (HPC)", "result": "185 % of control"}, {"measurement": "T/C", "setting": "endpoint: median survival time, dose: 100.0 mg/kg/injection, schedule: Q01DX001 (oral), vehicle: Klucel (hydroxypropylcellulose) (HPC)", "result": "124 % of control"}, {"measurement": "T/C", "setting": "endpoint: median survival time, dose: 100.0 mg/kg/injection, schedule: Q01DX009 (oral), vehicle: Klucel (hydroxypropylcellulose) (HPC)", "result": "238 % of control"}, {"measurement": "T/C", "setting": "endpoint: median survival time, dose: 111.2 mg/kg/injection, schedule: Q01DX005 (oral), vehicle: Klucel (hydroxypropylcellulose) (HPC)", "result": "212 % of control"}, {"measurement": "T/C", "setting": "endpoint: median survival time, dose: 112.5 mg/kg/injection, schedule: Q01DX001 (oral), vehicle: Klucel (hydroxypropylcellulose) (HPC)", "result": "235 % of control"}, {"measurement": "T/C", "setting": "endpoint: median survival time, dose: 166.8 mg/kg/injection, schedule: Q01DX001 (oral), vehicle: Klucel (hydroxypropylcellulose) (HPC)", "result": "160 % of control"}, {"measurement": "T/C", "setting": "endpoint: median survival time, dose: 166.8 mg/kg/injection, schedule: Q01DX005 (oral), vehicle: Klucel (hydroxypropylcellulose) (HPC)", "result": "272 % of control"}, {"measurement": "T/C", "setting": "endpoint: median survival time, dose: 200.0 mg/kg/injection, schedule: Q01DX001 (oral), vehicle: Klucel (hydroxypropylcellulose) (HPC)", "result": "178 % of control"}, {"measurement": "T/C", "setting": "endpoint: median survival time, dose: 250.0 mg/kg/injection, schedule: Q01DX001 (oral), vehicle: Klucel (hydroxypropylcellulose) (HPC)", "result": "225 % of control"}]}
